Reference: the CheMixHub ionic liquid set

Assay: xn = mol fraction of the nth substance listed
Conditions: for viscosity: x2 = 0

CC(=O)[O-].Cn1cc[nH+]c1 + O
electrical conductivity [S/m]
Conditions | x1 = 0.0051 | x1 = 0.0151 | x2 = 0.0705 | x2 = 0.1339 | x2 = 0.8407 | x2 = 0.9035 | x2 = 0.9502 | x2 = 0.98
293.15 K, 101.3 kPa | – | – | 0.905 | 1.176 | 8.771 | 6.875 | – | –
298.15 K, 101 kPa | 1.17 | 2.49 | – | – | – | – | 3.87 | 2.71

101 kPa
Conditions | viscosity [mPa·s]
303.15 K | 5.91
313.15 K | 4.395

CCCCCCCCn1cc[n+](C)c1C.[Cl-] + O
298 K, 101 kPa
Conditions | electrical conductivity [S/m]
x1 = 2.703e-05 | 0.02
x1 = 0.0001369 | 0.09
x1 = 0.000245 | 0.14
x1 = 0.0003531 | 0.2
x1 = 0.0004899 | 0.27
x1 = 0.0007347 | 0.32
x1 = 0.0008984 | 0.41
x1 = 0.001197 | 0.48
x1 = 0.001468 | 0.58
x1 = 0.001766 | 0.69
x1 = 0.002039 | 0.79
x1 = 0.002391 | 0.88
x1 = 0.002715 | 0.99
x1 = 0.003203 | 1.14
x1 = 0.003772 | 1.32
x1 = 0.004474 | 1.48
x1 = 0.005202 | 1.66
x1 = 0.005876 | 1.77
x1 = 0.006575 | 1.9
x1 = 0.007219 | 2.02
x1 = 0.007783 | 2.11
x1 = 0.008319 | 2.19
x1 = 0.0088 | 2.26
x1 = 0.009202 | 2.34
x1 = 0.009496 | 2.39
